Measured values: PubChem BioAssay (NCI)
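Cells were grown in 96-well plates and exposed to each compound for 48 hours at five concentrations; endpoints were interpolated linearly between bracketing concentrations, or set to the highest concentration if not reached. The concentration for 50% growth inhibition is given as GI50. TGI denotes the concentration required for complete inhibition of growth.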

Tests used:
Assay in all cases: NCI-60 cell line screen, 48 h
[1] = test system: T-47D breast
[2] = test system: NCI/ADR-RES ovarian
[3] = test system: HL-60(TB) leukemia
[4] = test system: HS 578T breast
[5] = test system: SNB-75 CNS
[6] = test system: KM12 colon
[7] = test system: NCI-H522 lung
[8] = test system: IGROV1 ovarian
[9] = test system: 786-0 renal
[10] = test system: SR leukemia
[11] = test system: MDA-MB-435
[12] = test system: U251 CNS
[13] = test system: HOP-62 NSCLC
[14] = test system: A498 renal
[15] = test system: DU-145 prostate
[16] = test system: LOX IMVI melanoma
[17] = test system: SF-295 CNS
[18] = test system: OVCAR-4 ovarian
[19] = test system: PC-3 prostate
[20] = test system: SNB-19 CNS
[21] = test system: SK-MEL-2 melanoma
[22] = test system: HOP-92 NSCLC
[23] = test system: RXF 393 renal
[24] = test system: MDA-MB-231 breast
[25] = test system: SF-268 CNS
[26] = test system: M14 melanoma
[27] = test system: SK-OV-3 ovarian
[28] = test system: NCI-H460 lung
[29] = test system: MCF7 breast
[30] = test system: BT-549 breast
[31] = test system: COLO 205 colon
[32] = test system: UO-31 renal
[33] = test system: UACC-257 melanoma
[34] = test system: SK-MEL-28 melanoma
[35] = test system: CCRF-CEM leukemia
[36] = test system: K-562 leukemia
[37] = test system: NCI-H226 lung
[38] = test system: TK-10 renal
[39] = test system: SK-MEL-5 melanoma
[40] = test system: HCT-15 colon
[41] = test system: RPMI-8226 leukemia
[42] = test system: NCI-H23 lung
[43] = test system: SW-620 colon
[44] = test system: OVCAR-8 ovarian
[45] = test system: SF-539 CNS
[46] = test system: SN12C renal
[47] = test system: HT29 colon
[48] = test system: MOLT-4 leukemia
[49] = test system: HCT-116 colon
[50] = test system: UACC-62 melanoma
[51] = test system: HCC-2998 colon
[52] = test system: MALME-3M melanoma
[53] = test system: CAKI-1 renal
[54] = test system: A549 NSCLC
[55] = test system: ACHN renal
[56] = test system: OVCAR-5 ovarian

## O=C(Nc1cccc(-n2cc(-c3ccncc3)c(-c3ccc(O)c(Cl)c3)n2)c1)c1ccc(N2CCOCC2)c(C(F)(F)F)c1
[1]
  GI50: 2.99 µM
  TGI: > 50 µM
[2]
  GI50: 4.24 µM
  TGI: > 50 µM
[3]
  GI50: 1.2 µM
  TGI: 3.15 µM
[4]
  GI50: 0.548 µM
  TGI: > 50 µM
[5]
  GI50: 0.745 µM
  TGI: > 50 µM
[6]
  GI50: 1.12 µM
  TGI: > 50 µM
[7]
  GI50: 2.22 µM
  TGI: > 50 µM
[8]
  GI50: > 50 µM
  TGI: > 50 µM
[9]
  GI50: 0.982 µM
  TGI: > 50 µM
[10]
  GI50: 1.05 µM
  TGI: > 50 µM
[11]
  GI50: 5 µM
  TGI: > 50 µM
[12]
  GI50: 0.917 µM
  TGI: > 50 µM
[13]
  GI50: 3.07 µM
  TGI: > 50 µM
[14]
  GI50: > 50 µM
  TGI: > 50 µM
[15]
  GI50: > 50 µM
  TGI: > 50 µM
[16]
  GI50: 1.61 µM
  TGI: > 50 µM
[17]
  GI50: 1.24 µM
  TGI: 4.32 µM
[18]
  GI50: > 50 µM
  TGI: > 50 µM
[19]
  GI50: 2.39 µM
  TGI: > 50 µM
[20]
  GI50: > 50 µM
  TGI: > 50 µM
[21]
  GI50: 34 µM
  TGI: > 50 µM
[22]
  GI50: 0.994 µM
  TGI: 3.81 µM
[23]
  GI50: 0.283 µM
  TGI: 2.25 µM
[24]
  GI50: 0.857 µM
  TGI: 3.09 µM
[25]
  GI50: > 50 µM
  TGI: > 50 µM
[26]
  GI50: 2.75 µM
  TGI: > 50 µM
[27]
  GI50: > 50 µM
  TGI: > 50 µM
[28]
  GI50: 1.82 µM
  TGI: > 50 µM
[29]
  GI50: 2.03 µM
  TGI: > 50 µM
[30]
  GI50: 2.35 µM
  TGI: > 50 µM
[31]
  GI50: 4.62 µM
  TGI: > 50 µM
[32]
  GI50: 2.99 µM
  TGI: > 50 µM
[33]
  GI50: > 50 µM
  TGI: > 50 µM
[34]
  GI50: 3.75 µM
  TGI: > 50 µM
[35]
  GI50: 1.34 µM
  TGI: > 50 µM
[36]
  GI50: 1.45 µM
  TGI: > 50 µM
[37]
  GI50: > 50 µM
  TGI: > 50 µM
[38]
  GI50: > 50 µM
  TGI: > 50 µM
[39]
  GI50: 1.75 µM
  TGI: > 50 µM
[40]
  GI50: 1.21 µM
  TGI: > 50 µM
[41]
  GI50: 1.04 µM
  TGI: 4.24 µM
[42]
  GI50: 3.95 µM
  TGI: > 50 µM
[43]
  GI50: 4.05 µM
  TGI: > 50 µM
[44]
  GI50: 2.24 µM
  TGI: > 50 µM
[45]
  GI50: 1.04 µM
  TGI: > 50 µM
[46]
  GI50: > 50 µM
  TGI: > 50 µM
[47]
  GI50: 2.36 µM
  TGI: > 50 µM
[48]
  GI50: 2.33 µM
  TGI: > 50 µM
[49]
  GI50: 2.35 µM
  TGI: > 50 µM
[50]
  GI50: > 50 µM
  TGI: > 50 µM
[51]
  GI50: 3.44 µM
  TGI: > 50 µM
[52]
  GI50: 2.8 µM
  TGI: > 50 µM
[53]
  GI50: 2.24 µM
  TGI: > 50 µM
[54]
  GI50: 2 µM
  TGI: > 50 µM
[55]
  GI50: 2.18 µM
  TGI: > 50 µM
[56]
  GI50: > 50 µM
  TGI: > 50 µM
